In this data set the test system is Murine B16 melanoma cells. To be noted: for IC50: murine B16 melanoma cells, MTT, 48 h exposure time, mean ± SD of 3 determinations.

Protocol: Murine B16 melanoma cells were grown in Dulbecco's modified essential medium (DMEM) containing 2 mM L-glutamine, 10% fetal bovine serum, 100 U/ml penicillin and 100 µg/ml streptomycin (37°C, 5% CO2). Stock solutions of the compounds were prepared in DMSO and further diluted in DMEM at the indicated concentrations with a final DMSO concentration of not exceeding 1%. Exponentially growing cells were plated onto 96-well plates at a density of 5000 cells per well in 200 µl DMEM, and 24 h later the compounds were added for another 48 h. Control wells were exposed to 1% DMSO. Viability was assessed using the MTT (1-(4,5-dimethylthiazol-2-yl)-3,5-diphenyltetrazolium) test and absorbance was read at 562 nm in a microplate reader (BioKinetics Reader, EL340) (Carmichael et al. 1987).

For orientation: IC50 means the concentration that gives 50% inhibition. The substance “2-ferrocenyl-4H-chromen-4-one [Compound 2a]” displayed an IC50 of 33.9 ± 0.8 µM.

“6,8-dibromo-2-ferrocenyl-4H-chromen-4-one [Compound 2e]” displayed an IC50 of 13.7 ± 1 µM.

In the case of “6,8-dichloro-2-ferrocenyl-4H-chromen-4-one [Compound 2d]”, the IC50 came to 12.1 ± 0.4 µM.

As to “6,8-difluoro-2-ferrocenyl-4H-chromen-4-one [Compound 2f]”, the midpoint of inhibition, the IC50, lay at 18 ± 0.2 µM.

“6-bromo-2-ferrocenyl-4H-chromen-4-one [Compound 2c]” registered an IC50 of 15.9 ± 0.3 µM.

Turning to “6-chloro-2-ferrocenyl-4H-chromen-4-one [Compound 2b]”, half-maximal inhibition (IC50) required 15.6 ± 0.3 µM.

As to “(E)-1-(2-hydroxyphenyl)-3-ferrocenylprop-2-en-1-one [Compound 1a]”, inhibition was half-maximal at 43.7 ± 1.8 µM (IC50).

As to “(E)-1-(3,5-dibromo-2-hydroxyphenyl)-3-ferrocenylprop-2-en-1-one [Compound 1e]”, the cytotoxic activity result is listed as “decrease in cytotoxic activity” and the IC50 is 84.2 ± 4.8 µM.

For the substance “(E)-1-(3,5-dichloro-2-hydroxyphenyl)-3-ferrocenylprop-2-en-1-one [Compound 1d]”, the cytotoxic activity result is listed as “decrease in cytotoxic activity” and it took 73.6 ± 2.6 µM to reach half-maximal inhibition (IC50).

As to “(E)-1-(3,5-difluoro-2-hydroxyphenyl)-3-ferrocenylprop-2-en-1-one [Compound 1f]”, the cytotoxic activity result is on record as “decrease in cytotoxic activity” and the IC50 stood at 49.4 ± 1.3 µM.

“(E)-1-(5-bromo-2-hydroxyphenyl)-3-ferrocenylprop-2-en-1-one [Compound 1c]”: the IC50 worked out at 44.6 ± 2.8 µM.

Regarding “(E)-1-(5-chloro-2-hydroxyphenyl)-3-ferrocenylprop-2-en-1-one [Compound 1b]”, the IC50 turned out to be 29.5 ± 1.8 µM.

Values taken from patent EP2368895A1, “Ferrocenyl flavonoids” (Centre National de la Recherche Scientifique (CNRS), priority 2010, dated 2011).
